Here are results for 5 molecules from the NIST ThermoML archive (doi:10.1016/j.tca.2017.12.024).

The structures appear in SMILES notation. Numbers after ± are expanded uncertainties.

The conditions of data set [1]: Crystal; DTA.
The nature of data set [2]: Molar enthalpy of transition or fusion. To be noted: Crystal; DSC.

As for `CCCCCCCCCC(=O)O` [decanoic acid], the Normal melting temperature in data set [1] worked out at 32.00 ± 3 °C. Also, the “Molar enthalpy of transition or fusion” value in data set [2] came out at 25 ± 5 kJ/mol.
With `CCCCCCCCCCCC(=O)O` [dodecanoic acid], the Normal melting temperature in data set [1] came to 43.60 ± 3 °C. In addition, the “Molar enthalpy of transition or fusion” value in data set [2] amounted to 35.3 ± 7 kJ/mol.
For the molecule `CCCCCCCCCCCCCCCC(=O)O` [hexadecanoic acid], the Normal melting temperature in data set [1] is 61.70 ± 3 °C. Moreover, the “Molar enthalpy of transition or fusion” value in data set [2] was found to be 52.8 ± 11 kJ/mol.
Take `CCCCCCCCCCCCCCCCCC(=O)O` [octadecanoic acid]: the Normal melting temperature in data set [1] turned out to be 68.40 ± 3 °C. In data set [2], the “Molar enthalpy of transition or fusion” value stood at 60 ± 12 kJ/mol.
With `CCCCCCCCCCCCCC(=O)O` [tetradecanoic acid], in data set [1], the Normal melting temperature is 54.70 ± 3 °C. Also, the “Molar enthalpy of transition or fusion” value in data set [2] came to 42.5 ± 8.4 kJ/mol.
